Values of other authors, collected in patent publication US20070292421A1, “Method for treating preeclampsia” (priority 2005, published 2007).
Each block holds one compound with its values, some of them ahead of it.

Experiments:
[1] = target: serotonin 5-HT2A receptor (Homo sapiens, UniProt P28223)
[2] = tested on: 5-HT2C, 5-HT2B, 5-HT1D, alpha-adrenergic, and dopamine receptors; settings: relative to 5-HT2A
trophoblast apoptosis = settings: in vitro
human C5a receptor = settings: numerous models of human disease
[3] = tested on: antineutrophil cytoplasmic antibody (ANCA) positive patients
severe sepsis = settings: OPTIMIST trial

serotonin 5-HT2A receptor, sequence (P28223 whole entry): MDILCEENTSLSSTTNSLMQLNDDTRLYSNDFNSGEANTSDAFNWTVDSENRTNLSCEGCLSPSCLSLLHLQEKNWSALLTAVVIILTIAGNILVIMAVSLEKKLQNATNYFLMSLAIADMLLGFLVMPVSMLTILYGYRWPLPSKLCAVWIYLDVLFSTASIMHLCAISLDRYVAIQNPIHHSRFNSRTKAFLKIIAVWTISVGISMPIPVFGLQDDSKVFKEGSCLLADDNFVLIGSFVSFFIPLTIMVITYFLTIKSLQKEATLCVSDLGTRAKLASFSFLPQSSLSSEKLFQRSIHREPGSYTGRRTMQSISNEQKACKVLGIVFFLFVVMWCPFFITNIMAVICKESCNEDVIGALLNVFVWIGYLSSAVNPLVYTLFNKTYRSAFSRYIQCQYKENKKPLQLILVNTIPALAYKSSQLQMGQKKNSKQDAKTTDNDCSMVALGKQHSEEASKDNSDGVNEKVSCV

affinity [1]: high affinity
binding [2]: binds less potently
Compound: O=C(c1ccc(F)cc1)C1CCN(CCn2c(=O)[nH]c3ccccc3c2=O)CC1 [Ketanserin]

Compound: CC(=O)Oc1ccccc1C(=O)O [aspirin]
effect on trophoblast apoptosis (trophoblast apoptosis): regulate trophoblast apoptosis

Compound: Ac-Phe [3D53, Ac-Phe [Orn-Pro-D-Cha-Trp-Arg]]
anti-inflammatory activity (human C5a receptor): excellent anti-inflammatory activity

Compound: Rituximab: monoclonal antibody that binds the B cell surface protein CD20 (Roche Pharmaceuticals)
clinical improvement ([3]; n=11 patients combined, added to immunosuppressive drug regimen): clinical improvement in all eleven cases
cases with complete clinical improvement ([3]; of eleven cases): eight

Compound: heparin
effect on trophoblast apoptosis (trophoblast apoptosis): regulate trophoblast apoptosis

Compound: tifacogin: recombinant TFPI (Chiron Corp/Pharmacia Corp)
treatment of severe sepsis (severe sepsis): failure
